Results published in patent US20010046987A1, “Oxazolidinones having a sulfoximine functionality” (priority 1999, published 2001).
In brackets after ≈: the same amount, converted by molar mass.

How the values were obtained:
[1] = system: Staphylococcus aureus; test: MIC by agar dilution, SAUR 9213; assay type: cell-based; conditions: Staphylococcus aureus, strain SAUR 9213, read-out: Antibacterial Activity Minimum Inhibitory Concentration SAUR 9213
Description: (§1) The in vitro activity of compounds of this invention can be assessed by standard testing procedures such as the determination of minimum inhibitory concentration (MIC) by agar dilution as described in “Approved Standard.

[2] = system: Staphylococcus epidermidis; test: MIC by agar dilution, SEPI 30593; assay type: cell-based; conditions: Staphylococcus epidermidis, strain SEPI 30593, read-out: Antibacterial Activity Minimum Inhibitory Concentration SEPI 30593
Description: as §1

[3] = system: Enterococcus faecium; test: MIC by agar dilution, EFAE 12712; assay type: cell-based; conditions: Enterococcus faecium, strain EFAE 12712, read-out: Antibacterial Activity Minimum Inhibitory Concentration EFAE 12712
Description: as §1

[4] = system: Streptococcus pneumoniae; test: MIC by agar dilution, SPNE 9912; assay type: cell-based; conditions: Streptococcus pneumoniae, strain SPNE 9912, read-out: Antibacterial Activity Minimum Inhibitory Concentration SPNE 9912
Description: as §1

[5] = system: Streptococcus pyogenes; test: MIC by agar dilution, SPYO 152; assay type: cell-based; conditions: Streptococcus pyogenes, strain SPYO 152, read-out: Antibacterial Activity Minimum Inhibitory Concentration SPYO 152
Description: as §1

[6] = system: H. influenzae; test: MIC by agar dilution, HINF 30063; assay type: cell-based; conditions: Haemophilus influenzae, strain HINF 30063, read-out: Antibacterial Activity Minimum Inhibitory Concentration HINF 30063
Description: as §1

[7] = system: Enterococcus faecalis; test: MIC by agar dilution, EFAE 9217; assay type: cell-based; conditions: Enterococcus faecalis, strain EFAE 9217, read-out: Antibacterial Activity Minimum Inhibitory Concentration EFAE 9217
Description: as §1

[8] = system: Moraxella catarrhalis; test: MIC by agar dilution, MCAT 30607; assay type: cell-based; conditions: Moraxella catarrhalis, strain MCAT 30607, read-out: Antibacterial Activity Minimum Inhibitory Concentration MCAT 30607
Description: as §1

MIC [1]	MIC [2]	MIC [3]	MIC [4]	MIC [5]	MIC [6]	MIC [7]	MIC [8]	melting point	Compound
0.5 µg/mL (≈ 0.866 µM)	0.25 µg/mL (≈ 0.433 µM)	0.25 µg/mL (≈ 0.433 µM)	< 0.06 µg/mL	0.125 µg/mL (≈ 0.216 µM)	> 64 µg/mL	0.25 µg/mL (≈ 0.433 µM)	0.25 µg/mL (≈ 0.433 µM)	222 to 228 °C	CCC(=S)NCC1CN(c2ccc(C3CC[S+2]([O-])([N-]C(=O)Nc4ccc([N+](=O)[O-])cc4)CC3)c(F)c2)C(=O)O1 [Example 21, N-({(5S)-3-[3-Fluoro-4-(1-{[[(4-nitrophenyl)amino]carbonyl]imino}-1-oxidohexahydro-1λ^4-thiopyran-4-yl)phenyl]-2-oxo-1,3-oxazolidin-5-yl}methyl)propanethioamide, Z-isomer]
1 µg/mL (≈ 2.27 µM)	0.5 µg/mL (≈ 1.14 µM)	1 µg/mL (≈ 2.27 µM)	0.25 µg/mL (≈ 0.569 µM)	0.5 µg/mL (≈ 1.14 µM)	4 µg/mL (≈ 9.1 µM)	0.5 µg/mL (≈ 1.14 µM)	2 µg/mL (≈ 4.55 µM)	201 to 202 °C (dec.)	C[N-][S+2]1([O-])CCC(c2ccc(N3CC(CNC(=S)C4CC4)OC3=O)cc2F)CC1 [Example 29, N-({(5S)-3-[3-Fluoro-4-[1-(methylimino)-1-oxidohexahydro-1λ^4-thiopyran-4-yl]phenyl]-2-oxo-1,3-oxazolidin-5-yl}methyl)cyclopropanecarbothioamide, Z-isomer]

Compound	MIC [1]	MIC [2]	MIC [3]	MIC [4]	MIC [5]	MIC [6]	MIC [7]	MIC [8]	melting point
CCC(=S)NCC1CN(c2ccc(C3CC[S+2]([O-])([N-]Cc4ccccc4)CC3)c(F)c2)C(=O)O1 [Example 16, N-({(5S)-3-[3-Fluoro-4-[1-[(phenylmethyl)imino]-1-oxidohexahydro-1λ^4-thiopyran-4-yl]phenyl]-2-oxo-1,3-oxazolidin-5-yl}methyl)propanethioamide, Z-isomer]	2 µg/mL (≈ 3.97 µM)	1 µg/mL (≈ 1.99 µM)	1 µg/mL (≈ 1.99 µM)	0.25 µg/mL (≈ 0.496 µM)	0.5 µg/mL (≈ 0.993 µM)	> 64 µg/mL	1 µg/mL (≈ 1.99 µM)	2 µg/mL (≈ 3.97 µM)	207 to 208 °C
